Assay results as given in patent US12098127B2, “Salt form of estrogen receptor downregulator, crystalline form thereof, and preparation method therefor” (LUOXIN PHARMACEUTICAL (SHANGHAI) CO., LTD., priority 2018, dated 2024).
Converted amounts (≈) assume the structure as drawn. Like-named read-outs stand apart in the source and are kept apart here.

Columns and labels:
[1] = Solubility test in water and biological vehicles (FaSSIF, FeSSIF); type: physicochemical; conditions: for solubility at 24 h: thermodynamic from solid, 37° C., HPLC, crystal form A calculated based on the free acid
[2] = In vivo PK experiments in beagle dogs, oral gavage
Description: The samples were detected by LC-MS/MS, and AUC, Cmax, and Tmax parameters were calculated by employing WinNonlin version 6.4.

[3] = background art; cited from earlier work
[4] = dog, blood, beagle dogs, P.O. 300 mg/kg, single oral gavage

Compound CC/C(=C(/c1ccc(/C=C/C(=O)O)cc1)c1[nH]c2ccccc2c1Cl)c1ccc(F)cc1Cl [compound I-8] has a solubility at 24 h ([1]; FaSSIF (simulated pre-meal intestinal fluid), read-out: Solubility in FaSSIF) of 117 µg/mL (≈ 244 µM), a solubility at 24 h ([1]; FeSSIF (simulated post-meal intestinal fluid), read-out: Solubility in FeSSIF) of 440 µg/mL (≈ 916 µM) and a solubility at 24 h ([1]; purified water, read-out: Solubility in H2O) of 8 µg/mL (≈ 16.7 µM). For the same compound, the AUC(0-t) [2, 4] was 613 µM·h, the Cmax [2, 4] was 43.5 µM and the Tmax [2, 4] was 6 h. The MRT last ([2]; dog, blood, beagle dogs, P.O. 300 mg/kg, single oral gavage, read-out: MRT0-last) was 10.6 h.

With CC/C(=C(/c1ccc(/C=C/C(=O)O)cc1)c1[nH]c2ccccc2c1Cl)c1ccc(F)cc1Cl [compound of formula (I)] the “Solubility in biological media compared with compound 1-8” value ([1]; biological media, versus compound 1-8) was “significantly improved”, the “Solubility in water compared with free acid compound 1-8” value ([1]; water, versus compound 1-8) was “nearly hundredfold improved” and the “Amount of exposure in the organism compared with compound 1-8” value ([2]; in vivo pharmacokinetic studies, versus compound 1-8) was “significantly increased”.

In the case of C[C@]12CC[C@@H]3c4ccc(O)cc4C[C@@H](CCCCCCCCC[S+]([O-])CCCC(F)(F)C(F)(F)F)[C@H]3[C@@H]1CC[C@@H]2O (some centres unmarked) [fulvestrant], the Oral bioavailability [3] is given as “zero oral bioavailability”.
